According to article PMC2906235 (The Journal of organic chemistry, 2010):
Like-named read-outs stand apart in the source and are kept apart here.

Key:
[1] = test system: Kasumi-1 acute myeloid leukemia cell line; assay: Kasumi-1 cell growth inhibition assay; format: cell-based; settings: read-out: Kasumi-1 IC50
[2] = molecular target: recombinant human Hsp90 (Hsp90α) (Homo sapiens, UniProt P07900); assay: Competitive binding to recombinant human Hsp90; settings: relative to control 17-AAG
oncostatin M signaling = settings: cited from earlier work
[3] = test system: MOLM-13 acute myeloid leukemia cell line; assay: MOLM-13 cell growth inhibition assay; format: cell-based
[4] = test system: Hsp90 derived from MDA-MB-468 breast cancer cell lysate; assay: Competitive binding assay to Hsp90 from MDA-MB-468 breast cancer cell lysate
[5] = test system: human histiocytic lymphoma U-937; settings: U-937 cells; cited from earlier work
[6] = read-out: MOLM-13 IC50, cell growth inhibition, MOLM-13

SMILES	IC50 [1] [nM]	Fold higher Hsp90 affinity than 17-AAG [2] [fold]	Fold higher Hsp90 affinity than 17-AAG ([2]; listed as autolytimycin 2)	Activity in cell based oncostatin M signaling assay (oncostatin M signaling)	IC50 [3, 6] [nM]	IC50 ([3]; read-out: MOLM-13 IC50, cell growth inhibition, MOLM-13, listed as autolytimcyin (2)) [nM]	IC50 ([3]; read-out: MOLM-13 IC50, cell growth inhibition, MOLM-13, listed as 17-AAG 4) [nM]	Competitive binding (nanomolar activity) to Hsp90 ([4]; Hsp90 from MDA-MB-468 breast cancer cell lysate) [nM]	Fold enhanced activity over geldanamycin ([4]; MDA-MB-468 lysate competitive binding) [fold]	IC50, inhibition of proliferation [5] [µg/mL]	Fold higher Hsp90 affinity than 17-AAG ([2]; listed as reblastatin 1)	IC50 (oncostatin M signaling; read-out: IC50, oncostatin M signaling assay, cell-based) [nM]	IC50 ([3]; Homo sapiens, MOLM-13, read-out: MOLM-13 IC50, cell growth inhibition, MOLM-13) [nM]	Fold less active than 17-AAG ([3]; MOLM-13 cell line) [fold]
CO[C@H]1C[C@H](C)Cc2cc(O)cc(c2)NC(=O)/C(C)=C/CC[C@H](OC)[C@@H](OC(N)=O)/C(C)=C/[C@H](C)[C@H]1O [autolytimycin (2), Autolytimycin]	280	4	about 4 fold	exhibit activity	~510	510								
C=CCNC1=C2C[C@@H](C)C[C@H](OC)[C@H](O)[C@@H](C)/C=C(\C)[C@H](OC(N)=O)[C@@H](OC)/C=C\C=C(/C)C(=O)NC(=CC1=O)C2=O [17-AAG (4), 17-allylamino-17-demethoxygeldanamycin, reference compound]	480				90		~90							
COc1c(O)cc2cc1C[C@@H](C)C[C@H](OC)[C@H](O)[C@@H](C)/C=C(\C)[C@H](OC(N)=O)[C@@H](OC)CC/C=C(\C)C(=O)N2 [reblastatin (1), reblastatin]		4						7.34	4	0.43	about 4 fold	160	~270	3
